Assay [1] deals with T1, Bromodomain-containing protein 4 (Homo sapiens, UniProt O60885). In words: Inhibition of BRD4 BD1 (unknown origin).
For assay [2], the target named is T1, Bromodomain-containing protein 4. The experiment in a line: Inhibition of BRD4 BD2 (unknown origin).
The target of a further assay is T2, Histone deacetylase 8 (Homo sapiens, UniProt Q9BY41).
T2 sequence (Q9BY41 whole entry): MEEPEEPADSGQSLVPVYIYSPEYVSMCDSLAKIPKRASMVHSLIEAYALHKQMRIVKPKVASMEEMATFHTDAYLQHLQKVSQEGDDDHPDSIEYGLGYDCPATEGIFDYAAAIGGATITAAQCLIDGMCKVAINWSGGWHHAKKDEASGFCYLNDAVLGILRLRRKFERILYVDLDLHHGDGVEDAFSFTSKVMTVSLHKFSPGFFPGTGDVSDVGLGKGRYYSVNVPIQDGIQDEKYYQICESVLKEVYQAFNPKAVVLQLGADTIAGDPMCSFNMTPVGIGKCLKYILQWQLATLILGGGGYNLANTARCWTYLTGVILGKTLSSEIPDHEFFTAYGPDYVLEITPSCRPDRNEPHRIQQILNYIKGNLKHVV
In words: Inhibition of human recombinant HDAC8 using BML-KI178-0005 as substrate incubated for 10 mins by fluorescence based assay.

A further assay deals with CDK6/cyclin D3 (Homo sapiens, UniProt Q00534). In words: Binding affinity to CDK6/Cyclin D3 (unknown origin) assessed as inhibition constant by radiometric assay. It is filed as protein-complex assay.
Assay [3] addresses T3, Poly [ADP-ribose] polymerase 1 (Homo sapiens, UniProt P09874). The experiment in a line: Inhibition of PARP1 (unknown origin) incubated for 1 hr by colorimetry.
In assay [4] the target is T3, Poly [ADP-ribose] polymerase 1. In words: Inhibition of PARP1 (unknown origin) using NAD+ as substrate incubated for 30 mins by fluorescence based assay.
The next assay has as its system MDA-MB-436. The experiment in a line: Antiproliferative activity against BRCA1 deficient human MDA-MB-436 cells assessed as reduction in cell viability incubated for 96 hrs by MTT assay. Conditions: MDA-MB-436, 96 h. Format: functional, cell-based.
Assay [5] addresses Serine/threonine-protein kinase PLK1 (Homo sapiens, UniProt P53350). In words: Inhibition of PLK1-PBD (unknown origin) using FITC-GPMQSpTPLNG-OH as substrate incubated for 30 mins by fluorescence polarization assay.
The next assay deals with MX1. In words: Cytotoxicity against human MX1 cells assessed as cell survival incubated for 72 hrs by MTT assay. The note with it: MX1, 72 h. Format: functional, cell-based.

A value given as a limit tells only on which side of the number the result lay.

T3 sequence (P09874 whole entry): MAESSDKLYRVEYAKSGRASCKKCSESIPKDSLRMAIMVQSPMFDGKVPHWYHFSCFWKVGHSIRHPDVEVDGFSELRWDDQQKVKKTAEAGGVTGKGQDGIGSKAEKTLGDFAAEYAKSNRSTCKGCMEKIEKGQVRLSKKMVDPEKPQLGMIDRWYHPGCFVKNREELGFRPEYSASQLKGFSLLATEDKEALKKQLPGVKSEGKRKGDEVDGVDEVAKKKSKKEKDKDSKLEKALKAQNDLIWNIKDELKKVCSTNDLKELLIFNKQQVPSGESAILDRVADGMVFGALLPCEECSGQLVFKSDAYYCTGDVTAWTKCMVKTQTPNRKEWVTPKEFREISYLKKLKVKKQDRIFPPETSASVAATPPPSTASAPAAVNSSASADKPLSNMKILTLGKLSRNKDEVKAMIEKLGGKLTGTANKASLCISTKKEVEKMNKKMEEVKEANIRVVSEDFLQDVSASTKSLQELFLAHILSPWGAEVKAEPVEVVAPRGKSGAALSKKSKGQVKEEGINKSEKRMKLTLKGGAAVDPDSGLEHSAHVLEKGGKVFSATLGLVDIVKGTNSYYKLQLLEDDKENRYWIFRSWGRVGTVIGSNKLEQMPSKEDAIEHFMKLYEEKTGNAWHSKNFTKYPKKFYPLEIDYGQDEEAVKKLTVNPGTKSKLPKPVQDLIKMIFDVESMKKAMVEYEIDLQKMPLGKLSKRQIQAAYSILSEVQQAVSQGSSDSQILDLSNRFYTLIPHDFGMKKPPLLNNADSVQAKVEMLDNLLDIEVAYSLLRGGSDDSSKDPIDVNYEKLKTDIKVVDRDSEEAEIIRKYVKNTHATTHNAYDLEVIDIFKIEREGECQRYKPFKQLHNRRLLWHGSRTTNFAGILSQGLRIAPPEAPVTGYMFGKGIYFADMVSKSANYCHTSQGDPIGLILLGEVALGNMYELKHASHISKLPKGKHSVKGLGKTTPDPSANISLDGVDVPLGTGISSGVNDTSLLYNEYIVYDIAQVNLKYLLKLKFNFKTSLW
Chain of CDK6/cyclin D3 (P30281 whole entry): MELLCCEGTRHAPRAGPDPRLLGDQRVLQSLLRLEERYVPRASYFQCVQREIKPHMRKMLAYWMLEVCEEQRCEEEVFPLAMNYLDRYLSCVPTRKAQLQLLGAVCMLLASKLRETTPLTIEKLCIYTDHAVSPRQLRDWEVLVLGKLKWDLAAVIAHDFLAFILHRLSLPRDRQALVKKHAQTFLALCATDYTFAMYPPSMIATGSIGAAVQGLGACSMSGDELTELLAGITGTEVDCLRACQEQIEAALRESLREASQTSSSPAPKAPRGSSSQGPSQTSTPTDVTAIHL
Chain of CDK6/cyclin D3 (Q00534 whole entry): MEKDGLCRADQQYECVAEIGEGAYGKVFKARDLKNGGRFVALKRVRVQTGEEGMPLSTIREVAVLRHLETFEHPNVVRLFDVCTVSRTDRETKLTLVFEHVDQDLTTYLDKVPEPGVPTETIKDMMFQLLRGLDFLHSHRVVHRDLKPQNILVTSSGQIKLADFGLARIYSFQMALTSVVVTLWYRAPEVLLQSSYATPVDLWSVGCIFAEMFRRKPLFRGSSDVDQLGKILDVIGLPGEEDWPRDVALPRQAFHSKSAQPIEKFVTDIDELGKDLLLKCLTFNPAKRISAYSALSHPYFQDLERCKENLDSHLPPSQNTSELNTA
Chain of Serine/threonine-protein kinase PLK1 (P53350 whole entry): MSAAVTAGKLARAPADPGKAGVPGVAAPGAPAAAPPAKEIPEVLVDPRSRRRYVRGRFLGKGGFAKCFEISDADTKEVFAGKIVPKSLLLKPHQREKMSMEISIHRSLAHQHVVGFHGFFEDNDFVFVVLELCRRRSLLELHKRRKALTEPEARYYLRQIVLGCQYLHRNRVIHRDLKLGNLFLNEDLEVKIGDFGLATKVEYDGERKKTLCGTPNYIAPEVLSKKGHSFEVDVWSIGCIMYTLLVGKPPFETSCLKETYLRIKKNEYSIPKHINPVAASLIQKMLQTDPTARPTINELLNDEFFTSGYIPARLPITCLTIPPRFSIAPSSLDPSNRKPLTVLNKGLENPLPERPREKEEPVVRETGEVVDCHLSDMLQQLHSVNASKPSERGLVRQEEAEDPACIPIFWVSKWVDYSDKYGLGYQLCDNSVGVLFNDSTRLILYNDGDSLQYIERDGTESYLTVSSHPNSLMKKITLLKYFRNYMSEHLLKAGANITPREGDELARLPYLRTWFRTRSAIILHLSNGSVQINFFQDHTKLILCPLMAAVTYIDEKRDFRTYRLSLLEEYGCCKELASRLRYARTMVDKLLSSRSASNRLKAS

In the case of `C#CCSc1nc2nc(C)cc(Nc3cc(-c4ccccc4)[nH]n3)n2n1`, the half-maximal inhibitory concentration (IC50) in assay [1] is 2150 nM; in assay [2], 4360 nM.

On to `O=C(CCN1CCN(C(=O)Nc2ccnc3ccccc23)CC1)NO`, for which the IC50 at Histone deacetylase 8 is 1740 nM. For `CC(=O)N1N=C(c2c(O)c3ccccc3oc2=O)CC1c1ccccc1Cl` (centres undefined), at CDK6/cyclin D3, the Ki turned out to be 13.4 nM. In the case of `O=C(c1ccc(Cc2n[nH]c(=O)c3cccnc23)cc1)n1cccc1`, the IC50 in assay [3] was found to be 36 nM. On to `CC(c1nc2c(C(N)=O)cccc2[nH]1)N1CC(=O)N(c2ccc(C(F)(F)F)cc2)C1=S` (centres undefined), for which the figures for the 50% inhibitory concentration (IC50) (in assay [4]; with MDA-MB-436) were 25 nM and 1000 nM, respectively. For the molecule `O=C(CCNC(=O)c1ccc(CO)cc1)N[C@@H](Cc1cnnn1CCc1ccccc1)C(=O)NCc1cn(CCP(=O)(O)O)nn1`, the IC50 in assay [5] turned out to be 3370 nM. On to `CC(C)N1CCC(NC(=O)c2cc(Cn3c(=O)[nH]c(=O)c4ccccc43)ccc2F)C1` (centres undefined), for which the half-inhibitory concentration (IC50) in the assay on MX1 is below 3120 nM.
